Test results published in patent publication US7964613B2 (Asahi Kasei Pharma Corporation, priority 2007, dated 2011).
pIC50: −log10 of the molar value.

What was measured:
[1] = system: thoracic aorta ring sample; test: Rat vascular smooth muscle relaxing action (phenylephrin contraction); conditions: cumulative phenylephrin, contraction relative to 60 mM KCl
Procedure: Examination of rat vascular smooth muscle relaxing action was performed as follows. A rat was anesthetized with pentobarbital sodium, and bled from the carotid artery, and then the thoracic aorta was extracted. The extracted vessel was immersed in ice-cooled Krebs-Henseleit nutrient solution bubbled with a mixed gas of 95% O2+5% CO2 to wash out the blood in the internal cavity of the vessel with the nutrient solution, and then stored overnight in the nutrient solution at 4° C. Then, connective tissues and lipids were removed from the vessel under a stereoscopic microscope, and a ring sample having a width of about 3 mm was prepared. The ring sample was hung in an organ bath containing the nutrient solution of 37° C., and a resting tension of 2.5 g was loaded on the sample. After the ring sample was stabilized for about 90 minutes, it was confirmed that a contraction reaction could be obtained by addition of 60 mM KCl alone. A test drug was added to the nutrient solution at an appropriate final concentration, and incubation was performed for 10 minutes. Then, phenylephrin was cumulatively added so that the concentration should become 1 nM, 10 nM, 100 nM, 1 μM and 10 μM.

hippocampus nerve cells = test: Effect of neurite outgrowth; assay type: cell-based, Wistar rat; conditions: 22 hours
Procedure: A Lab-Tek culture slide (4-well) was coated with poly-L-lysine (Sigma). A pregnant Wistar rat was used, and anesthetized with ether on day 18 of gestation. Then, a rat fetus was taken out from the rat, and the hippocampus was extracted from the brain of the fetus, put into a phosphate buffered physiological saline containing 0.1% trypsin, and incubated at 37° C. for 10 minutes. The hippocampus precipitated by centrifugation was ground in a medium containing 10% heat-inactivated fetal bovine serum by using a pipet to obtain hippocampus nerve cells. The cells were finally suspended in a medium containing B27 Supplement (Gibco), and plated on the preliminarily coated Lab-Tek culture slide at a density of 50,000 cells/well. After adhesion of the cells (about 2 hours), a drug was added at a desired concentration, and the slide was further incubated at 37° C. for 22 hours under 5% CO2. […]
After the incubation, the cells were fixed with 4% paraformaldehyde, and immunostained by using rabbit anti-beta-III-tubulin antibodies (Covance). Images of the nerve cells were captured into a computer by using a digital camera (DP-70, Olympus) installed in a fluorescence microscope (Olympus). Images of 20 to 30 of arbitrary sites on the slide were captured, and lengths of the axial fivers of 200 to 300 nerve cells were measured by using NIH imaging software for each drug. […]

human ROCK1 = target: T1, human ROCK1 (Homo sapiens, UniProt Q13464); test: Measurement of Rho kinase inhibitory activity (ELISA of MBS phosphorylation); assay type: biochemical; conditions: human ROCK1, MBS substrate, 100 μM ATP, 30° C. for 10 minutes
T1 construct: His tag (N); host or cells: insect cells (Sf9)
Method in brief: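 N-terminal His-tagged human ROCK1 (1-727, Sf9-expressed) phosphorylated plate-immobilized MBS in 20 mM HEPES pH 7.5, 100 μM ATP, 30° C for 10 minutes. Phospho-MBS detected by antibody ELISA (A490); IC50 is concentration giving 50% inhibition.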

T1 sequence (Q13464 1-727): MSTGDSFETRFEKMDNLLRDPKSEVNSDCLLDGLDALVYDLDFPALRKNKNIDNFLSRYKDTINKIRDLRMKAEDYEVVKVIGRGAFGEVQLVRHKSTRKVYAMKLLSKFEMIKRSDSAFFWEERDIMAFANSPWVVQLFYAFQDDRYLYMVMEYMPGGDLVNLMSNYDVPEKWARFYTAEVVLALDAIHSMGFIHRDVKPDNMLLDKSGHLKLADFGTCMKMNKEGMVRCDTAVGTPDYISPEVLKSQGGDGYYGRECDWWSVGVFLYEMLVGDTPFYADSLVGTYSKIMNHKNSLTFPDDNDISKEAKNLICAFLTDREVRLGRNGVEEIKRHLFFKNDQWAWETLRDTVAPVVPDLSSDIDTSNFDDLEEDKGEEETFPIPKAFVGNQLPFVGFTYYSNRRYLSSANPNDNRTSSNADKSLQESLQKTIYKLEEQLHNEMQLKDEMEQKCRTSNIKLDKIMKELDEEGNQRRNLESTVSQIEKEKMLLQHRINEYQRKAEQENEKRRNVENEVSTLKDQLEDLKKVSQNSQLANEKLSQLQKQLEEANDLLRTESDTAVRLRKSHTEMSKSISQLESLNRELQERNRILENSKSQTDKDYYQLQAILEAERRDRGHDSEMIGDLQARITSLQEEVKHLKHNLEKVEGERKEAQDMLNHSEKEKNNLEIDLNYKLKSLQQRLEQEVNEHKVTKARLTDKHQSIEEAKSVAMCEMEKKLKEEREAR

Row | pIC50 [1] | pIC50 (human ROCK1) | SMILES | neurites extended compared with non-treated nerve cells (hippocampus nerve cells; concentration of 1 μM) [%] | neurites extended compared with non-treated nerve cells (hippocampus nerve cells; concentration of 10 μM) [%]
1 | 7.00 | > 6.00 | CN[C@H]1CCN(S(=O)(=O)c2cccc3c(O)ncc(Cl)c23)C1 [Example 36-1, (S)-1-(1-Hydroxy-4-chloro-5-isoquinolinesulfonyl)-3-(methylamino)pyrrolidine] | 28 | 43
2 |  | > 6.00 | CN[C@H]1CCN(S(=O)(=O)c2cccc3cncc(C)c23)C1 [Example 8-3] |  | 
3 | 6.52 | > 6.00 | CN[C@H]1CCN(S(=O)(=O)c2cccc3cncc(Cl)c23)C1 [Example 19-3, (S)-1-(4-Chloro-5-isoquinolinesulfonyl)-3-(methylamino)pyrrolidine] |  | 
4 |  | > 6.00 | N[C@H]1CCN(S(=O)(=O)c2cccc3cncc(Cl)c23)C1 [Example 19-1, (S)-3-Amino-1-(4-chloro-5-isoquinolinesulfonyl)pyrrolidine] |  | 
